# Laboratory results reported in patent US7531320B2, “Modulation of β-catenin/TCF-activated transcription” (priority 2003, dated 2009).
# Test system: SW480 cells
# Test: cDNA microarray analysis (Clontech Atlas Human Cancer 1.2 Array) of SW480 cells
# Conditions: 25 μM; for Ratio, fos-related antigen (FRA1): gene code A13c; for Ratio, epidermal growth factor receptor (EGFR): gene code A12d; for Ratio, placental calcium-binding protein; calvasculin: gene code B07l; for Ratio, proliferating cyclic nuclear antigen (PCNA); cyclin: gene code C13e; for Ratio, growth arrest &DNA-damage-inducible protein 153 (GADD153): gene code C05d; for Ratio, integrin alpha 3 (ITGA3); galactoprotein B3 (GAPB3): gene code D03e; for Ratio, low-affinity nerve growth factor receptor (NGF receptor; NGFR): gene code D03k; for Ratio, histone H4: gene code D08b; for Ratio, nuclear protein: gene code D09b; for Ratio, interleukin-1 beta precursor (IL-1; IL1B); catabolin: gene code E07f; for Ratio, macrophage inhibitory cytokine 1 (MIC1): gene code E09e; for Ratio, neutrophil gelatinase-associated lipocalin precursor (NGAL): gene code F04i; for Ratio, early growth response alpha (EGR alpha): gene code F06n; for Ratio, gravin: gene code F09g; for Ratio, glycyl tRNA synthetase: gene code F13k
compound,measurement,setting,value
O=C1C(Cc2ccc(O)cc2)N2C(=O)CCN(C(=O)NCc3ccccc3)C2CN1Cc1cccc2ccccc12 (stereo not shown) [COMPOUND 1],"Ratio, WSL protein + TRAMP + Apo-3 + death domain receptor 3 (DDR3)","8-hour treatment, […]",1.84
same,"Ratio, integrin beta 4 (ITGB4); CD104 antigen","8-hour treatment, […]",1.84
same,"Ratio, G2/mitotic-specific cyclin B1 (CCNB1)","8-hour treatment, gene code A05i",0.57
same,"Ratio, matrix metalloproteinase 11 (MMP11); stromelysin 3","8-hour treatment, gene code A10f",0.77
same,"Ratio, fos-related antigen (FRA1)",8-hour treatment,2.48
same,"Ratio, brain glucose transporter 3 (GTR3)","8-hour treatment, gene code A14n",1.94
same,"Ratio, epidermal growth factor receptor (EGFR)",8-hour treatment,4.20
same,"Ratio, ERBB-3 receptor protein-tyrosine kinase precursor","8-hour treatment, gene code A14d",1.36
same,"Ratio, linker for activation of T-cells (LAT)","8-hour treatment, gene code B01m",0.74
same,"Ratio, placental calcium-binding protein; calvasculin",8-hour treatment,0.85
same,"Ratio, ras-related C3 botulinum toxin substrate 2; p21-rac2","8-hour treatment, gene code B12j",0.62
same,"Ratio, retinoic acid receptor beta (RXR-beta; RXRB)","8-hour treatment, gene code B14n",0.74
same,"Ratio, PTPCAAX1 nuclear tyrosine phosphatase (PRL-1)","8-hour treatment, gene code B08h",2.56
same,"Ratio, MCM4 DNA replication licensing factor; CDC21 homolog","8-hour treatment, gene code C06f",0.38
same,"Ratio, growth arrest &DNA-damage-inducible protein (GADD45)","8-hour treatment, gene code C09i",5.36
same,"Ratio, proliferating cyclic nuclear antigen (PCNA); cyclin",8-hour treatment,0.38
same,"Ratio, growth arrest &DNA-damage-inducible protein 153 (GADD153)",8-hour treatment,6.92
same,"Ratio, DNA-binding protein CPBP","8-hour treatment, gene code D03b",1.47
same,"Ratio, integrin alpha 3 (ITGA3); galactoprotein B3 (GAPB3)",8-hour treatment,2.82
same,"Ratio, low-affinity nerve growth factor receptor (NGF receptor; NGFR)",8-hour treatment,1.77
same,"Ratio, histone H4",8-hour treatment,0.73
same,"Ratio, integrin alpha 7B precursor (IGA7B)","8-hour treatment, gene code D08e",1.69
same,"Ratio, paxillin","8-hour treatment, gene code D08f",2.14
same,"Ratio, nuclear protein",8-hour treatment,2.11
same,"Ratio, T-cell surface glycoprotein CD3 epsilon subunit precursor","8-hour treatment, gene code D11c",0.60
same,"Ratio, interleukin-13 precursor (IL-13); NC30","8-hour treatment, gene code E01g",0.88
same,"Ratio, interleukin-1 beta precursor (IL-1; IL1B); catabolin",8-hour treatment,1.77
same,"Ratio, macrophage inhibitory cytokine 1 (MIC1)",8-hour treatment,6.94
same,"Ratio, nerve growth factor-inducible PC4 homolog","8-hour treatment, gene code E03d",3.27
same,"Ratio, neutrophil gelatinase-associated lipocalin precursor (NGAL)",8-hour treatment,5.85
same,"Ratio, ornithine decarboxylase","8-hour treatment, gene code F05e",1.82
same,"Ratio, early growth response alpha (EGR alpha)",8-hour treatment,3.15
same,"Ratio, ribonucleoside-diphosphate reductase M2 subunit","8-hour treatment, gene code F07e",0.53
same,"Ratio, type I cytoskeletal 18 keratin; cytokeratin 18 (K18)","8-hour treatment, gene code F08f",1.59
same,"Ratio, gravin",8-hour treatment,6.40
same,"Ratio, glycyl tRNA synthetase",8-hour treatment,2.23
same,"Ratio, proto-oncogene c-jun; transcription factor AP-1","24-hour treatment, gene code A01c",1.34
same,"Ratio, EB1 protein","24-hour treatment, gene code A02b",0.52
same,"Ratio, c-myc binding protein MM-1","24-hour treatment, gene code A03g",0.43
same,"Ratio, G1/S-specific cyclin D1 (CCND1); cyclin PRAD1; bcl-1 oncogene","24-hour treatment, gene code A06i",0.47
same,"Ratio, cyclin-dependent kinase regulatory subunit 1 (CKS1)","24-hour treatment, gene code A10k",0.28
same,"Ratio, cyclin-dependent kinase regulatory subunit (CKS2)","24-hour treatment, gene code A11k",0.40
same,"Ratio, fos-related antigen (FRA1)",24-hour treatment,1.99
same,"Ratio, epidermal growth factor receptor (EGFR)",24-hour treatment,2.51
same,"Ratio, ADP/ATP carrier protein","24-hour treatment, gene code B02a",0.21
same,"Ratio, 14-3-3 protein sigma; stratifin; epithelial cell marker protein 1","24-hour treatment, gene code B03m",0.45
same,"Ratio, placental calcium-binding protein; calvasculin",24-hour treatment,0.50
same,"Ratio, ets domain protein elk-3; NET; SRF accessory protein 2 (SAP2)","24-hour treatment, gene code C01j",1.71
same,"Ratio, tumor necrosis factor type 1 receptor associated protein (TRAP1)","24-hour treatment, gene code C04b",0.73
same,"Ratio, MCM2 DNA replication licensing factor; nuclear protein BM28","24-hour treatment, gene code C05f",0.23
same,"Ratio, proliferating cyclic nuclear antigen (PCNA); cyclin",24-hour treatment,0.33
same,"Ratio, HHR23A; UV excision repair protein protein RAD23A","24-hour treatment, gene code C04h",0.36
same,"Ratio, growth arrest &DNA-damage-inducible protein 153 (GADD153)",24-hour treatment,3.66
same,"Ratio, integrin alpha 3 (ITGA3); galactoprotein B3 (GAPB3)",24-hour treatment,2.99
same,"Ratio, low-affinity nerve growth factor receptor (NGF receptor; NGFR)",24-hour treatment,2.50
same,"Ratio, integrin beta 4 (ITGB4); CD104 antigen","24-hour treatment, gene code D06e",2.68
same,"Ratio, cytosolic superoxide dismutase 1 (SOD1)","24-hour treatment, gene code D06m",0.45
same,"Ratio, high mobility group protein HMG2","24-hour treatment, gene code D07b",0.35
same,"Ratio, glutathione synthetase (GSH synthetase; GSH-S)","24-hour treatment, gene code D07m",0.34
same,"Ratio, histone H4",24-hour treatment,0.27
same,"Ratio, nuclear protein",24-hour treatment,0.49
same,"Ratio, chromatin assembly factor 1 p48 subunit (CAF1 p48 subunit)","24-hour treatment, gene code D12a",0.70
same,"Ratio, N-sam; fibroblast growth factor receptor1 precursor (FGFR1)","24-hour treatment, gene code D08h",10.39
same,"Ratio, MHC class I truncated HLA G lymphocyte antigen","24-hour treatment, gene code E02m",1.36
same,"Ratio, 78-kDa glucose regulated protein precursor (GRP 78)","24-hour treatment, gene code E02n",2.35
same,"Ratio, PDGF associated protein","24-hour treatment, gene code E04i",0.45
same,"Ratio, interleukin-1 beta precursor (IL-1; IL1B); catabolin",24-hour treatment,1.98
same,"Ratio, macrophage inhibitory cytokine 1 (MIC1)",24-hour treatment,2.79
same,"Ratio, CD59 glycoprotein precursor","24-hour treatment, gene code E11l",0.66
same,"Ratio, fatty acid synthase","24-hour treatment, gene code F03e",0.34
same,"Ratio, vimentin (VIM)","24-hour treatment, gene code F04g",1.34
same,"Ratio, neutrophil gelatinase-associated lipocalin precursor (NGAL)",24-hour treatment,23.85
same,"Ratio, early growth response alpha (EGR alpha)",24-hour treatment,1.79
same,"Ratio, gravin",24-hour treatment,8.46
same,"Ratio, inosine-5′-monophosphate dehydrogenase 2","24-hour treatment, gene code F10c",0.68
same,"Ratio, BENE","24-hour treatment, gene code F12l",2.07
same,"Ratio, elongation factor 2 (EF2)","24-hour treatment, gene code F13j",0.55
same,"Ratio, glycyl tRNA synthetase",24-hour treatment,2.02
same,"Ratio, TRAM protein","24-hour treatment, gene code F09h",3.25
same,"Ratio, L-lactate dehydrogenase H subunit (LDHB)","24-hour treatment, gene code F06d",0.40
same,"Ratio, brain-specific tubulin alpha 1 subunit (TUBA1)","24-hour treatment, gene code G29",0.72
same,"Ratio, HLA class I histocompatibility antigen C-4 alpha subunit (HLAC)","24-hour treatment, gene code G31",1.29
same,"Ratio, 23-kDa highly basic protein; 60S ribosomal protein L13A","24-hour treatment, gene code G45",0.65
same,Genes analyzed down-regulated by greater than 50%,8 hours,~0.3%
same,Genes analyzed upregulated more than 2-fold,8 hours,~2%
